From patent US9127103B2, “Polymerizable liquid crystal compound, a liquid crystal composition comprising the compound, and an optically anisotropic body comprising the same” (LG CHEM, LTD., priority 2012, dated 2015)

What was measured:
[1] = Measurement of birefringence (Δn) of retardation films by Axoscan; assay type: physicochemical; settings: retardation film of the compound; solvent TXB, TAC film; Δn calculated from retardation value and film thickness
Description: The liquid crystal composition coated with a roll coating method on a TAC (triacetyl cellulose) film on which norbornene-based photoaligning material was coated, and dried at about 80° C. for 2 mins so as that the liquid crystal compound was aligned. And then, the retardation film was prepared by exposing the film to a non-polarized UV from a high pressure mercury lamp of 200 mW/cm^2 so as to fixing the oriented state of the liquid crystal.
Like above method, the compositions including any one of compounds RM-02 to RM-08 instead of compound RM-01 were prepared, and the retardation films were prepared respectively by using the same.
And, the retardation film was prepared substantially according to the same method as in Preparation Examples 1˜8, except that the compound of Chemical Formula 10 was used instead of compound RM-01.
Quantitative retardation values of the retardation films according to Preparation Examples 1˜8, Comparative Preparation Examples 1˜2, and Reference Example were measured by using Axoscan (made by Axomatrix Co.). At this time, the thickness of the film was independently measured and Δn was calculated from the obtained values.

[2] = Measurement of solubility of the compound in various solvents; assay type: physicochemical; settings: for Solubility TXB: TXB = Toluene:Xylene:Butyl cellosolve 7:2:1 (weight ratio); for Solubility TXB / Solubility Cyclopentanone / Solubility Toluene + Heated: 25 parts by weight per 100 parts of solution; for Solubility Toluene + Heated: room temperature solution heated about 10 secs with a heat gun; for Solubility Toluene: 25 parts by weight of compound per 100 parts by weight of total solution
Description: At this time, the content of each compound in the solvent was 25 parts by weight per 100 parts by weight of total solution. In the following Table 1, when the compound was completely dissolved in the solvent and the solution was transparent, it was indicated by ‘◯’; when the compound was dissolved in the solvent but the solution was opaque, it was indicated by ‘Δ’; and when the compound was not dissolved at all, it was indicated by ‘×’. And, the term ‘heated’ in Table 1 means that the solution of room temperature including the compound was heated for about 10 secs by using a heat gun.

| Compound | Δn (Solvent, Film) [1] | Solubility TXB [2] | Solubility Cyclopentanone [2] | Solubility Toluene + Heated [2] | Solubility Toluene [2] | Solubility in toluene [2] | Solubility in toluene with heating [2] | Solubility in TXB mixed solvent [2] |
| --- | --- | --- | --- | --- | --- | --- | --- | --- |
| C=CC(=O)OCCCOc1ccc(C(=O)Oc2ccc(OC(=O)c3ccc(OCCCOC(=O)C=C)cc3)c(C)c2)cc1 [RM257, reference compound] | 0.12 (TXB, TAC) | ∘ | ∘ | ∘ |  |  |  |  |
| C=CC(=O)OCCCCCCOc1ccc2cc(C(=O)Oc3ccc(OC(=O)c4ccc5cc(OCCCCCCOC(=O)C=C)ccc5c4)c([N+](=O)[O-])c3)ccc2c1 [RM-04] | 0.20 (TXB, TAC) | ∘ | ∘ | ∘ |  |  |  |  |
| C=CC(=O)OCCCCCCOc1ccc2cc(C(=O)Oc3ccc(OC(=O)c4ccc5cc(OCCCCCCOC(=O)C=C)ccc5c4)c(S(C)(=O)=O)c3)ccc2c1 [RM-06] | 0.20 (TXB, TAC) | ∘ | ∘ | ∘ |  |  |  |  |
| C=CC(=O)OCCCOc1ccc2cc(C(=O)Oc3ccc(OC(=O)c4ccc5cc(OCCCOC(=O)C=C)ccc5c4)c(S(=O)(=O)CC)c3)ccc2c1 [RM-07] | 0.19 (TXB, TAC) | ∘ | ∘ | ∘ | ∘ |  |  |  |
| C=CC(=O)OCCCCCCOc1ccc2cc(C(=O)Oc3ccc(OC(=O)c4ccc5cc(OCCCCCCOC(=O)C=C)ccc5c4)c(S(=O)(=O)CC)c3)ccc2c1 [RM-08] | 0.22 (TXB, TAC) | ∘ | ∘ | ∘ |  |  |  |  |
| C=CC(=O)OCCCOc1ccc2cc(C(=O)Oc3ccc(OC(=O)c4ccc5cc(OCCCOC(=O)C=C)ccc5c4)cc3)ccc2c1 [RM-09, reference compound] |  |  |  |  |  | not dissolved in toluene at all | just opaque solution was obtained | not dissolved in TXB mixed solvent at all |
| C=CC(=O)OCCCCCCOc1ccc2cc(C(=O)Oc3ccc(OC(=O)c4ccc5cc(OCCCCCCOC(=O)C=C)ccc5c4)cc3)ccc2c1 [RM-10, reference compound] |  |  |  |  |  | not dissolved in toluene at all | just opaque solution was obtained | not dissolved in TXB mixed solvent at all |

Now from value to molecule, other results behind:

| Δn (Solvent, Film) [1] | Solubility TXB [2] | Solubility Cyclopentanone [2] | Solubility Toluene + Heated [2] | Solubility Toluene [2] | Solubility in toluene [2] | Solubility in toluene with heating [2] | Compound | Solubility in TXB mixed solvent [2] |
| --- | --- | --- | --- | --- | --- | --- | --- | --- |
| 0.17 (TXB, TAC) | ∘ | ∘ | ∘ |  |  |  | C=CC(=O)OCCCOc1ccc2cc(C(=O)Oc3ccc(OC(=O)c4ccc5cc(OCCCOC(=O)C=C)ccc5c4)c(C=O)c3)ccc2c1 [RM-01] |  |
| 0.18 (TXB, TAC) | ∘ |  | ∘ |  |  |  | C=CC(=O)OCCCCCCOc1ccc2cc(C(=O)Oc3ccc(OC(=O)c4ccc5cc(OCCCCCCOC(=O)C=C)ccc5c4)c(C=O)c3)ccc2c1 [RM-02] |  |
| 0.17 (TXB, TAC) | ∘ | ∘ | ∘ | ∘ |  |  | C=CC(=O)OCCCOc1ccc2cc(C(=O)Oc3ccc(OC(=O)c4ccc5cc(OCCCOC(=O)C=C)ccc5c4)c([N+](=O)[O-])c3)ccc2c1 [RM-03] |  |
| 0.19 (TXB, TAC) | ∘ | ∘ | ∘ | ∘ |  |  | C=CC(=O)OCCCOc1ccc2cc(C(=O)Oc3ccc(OC(=O)c4ccc5cc(OCCCOC(=O)C=C)ccc5c4)c(S(C)(=O)=O)c3)ccc2c1 [RM-05] |  |
